Measured values: patent US11857551B1, “Methods for the prevention and treatment of hearing loss” (Ting Therapeutics LLC, priority 2020, dated 2024)
Where a name gives a salt, the structure may show the parent alone.

Columns and labels:
zebrafish hair cells = assay: Excitotoxic hair cell damage in zebrafish (FIG. 4C); type: in vivo; details: P<0.05, one-way ANOVA
Description: (*P<0.05, one-way ANOVA.)

HEI-OC1 cells = assay: Caspase-Glo 3/7 assay in cisplatin-treated HEI-OC1 cells; details: for activity at 13.3 µM / activity at 0.165 µM / activity at 40 µM: Mus musculus, HEI-OC1, 19 h, read-out: caspase activity reached; for caspase activity reached: normalized to cisplatin-only and media-only controls; for IC50: read-out: calculated IC50 (percent protection dose response, caspase 3/7), HEI-OC1 cells, 1 h pretreatment, 19 h co-incubation
Description: Cells were seeded at 8,000 cells/well in 96 well plates and left to attach overnight. […] The cells were co-incubated with cisplatin and drug candidates for an additional 19 hours prior to Caspase-Glo 3/7 assay (Promega, Madison, WI) as previously shown. […] The luminescence detection representing caspase activity in each well was obtained using a Cytation Hybrid Multi-Mode Reader (Biotek, Winooski, VT, USA). The percent protection of the cells was calculated using caspase 3/7 readouts and the following formula:
Caspase activity was measured using Caspase-Glo 3/7 assay and then the results were calculated as percentage of protection as an indicator of cell survival/viability. Percent protection for each compound at the tested dosages were then plotted to show dose response curves, and IC50s were calculated.

[1] = test system: zebrafish HCs (lateral-line neuromasts); assay: Cisplatin ototoxicity in zebrafish, neuromast hair cell count
cancer patients = details: cisplatin chemotherapy; cited from earlier work
[2] = test system: patients who received cisplatin chemotherapy; details: cited from earlier work
[3] = 0.002, 0.018, 0.165, 1.48, 13.3 μM for 1 hour, then co-incubation with 400 μM cisplatin for 4 hours

For `O=c1[nH]cc(F)c(=O)[nH]1` [5-fluorouracil], which “protection of hair cells from excitotoxic damage” value (zebrafish hair cells) is on record?
The value was “protect hair cells from excitotoxic damage”.

What about the activity at 13.3 µM (HEI-OC1 cells) of the same compound?
The activity at 13.3 µM was about 30%.

What about the “protection against cisplatin ototoxicity (CIHL) in zebrafish” value (from here on “protection against cisplatin ototoxicity”) [1, 3] of the same compound?
The value was “showed protection against CIHL”.

With `Sc1ncnc2nc[nH]c12` [6 mercaptopurine] as the compound, how does the activity at 0.165 µM (HEI-OC1 cells) read?
Its activity at 0.165 µM is about 70%.

And the “protection against cisplatin ototoxicity” value [1, 3]?
The value was “showed protection against CIHL”.

With `N.N.[Cl][Pt][Cl]` [Cisplatin] as the compound, how does the “permanent hearing loss, share of treated cancer patients” value (cancer patients) read?
Its value is 40-60%.

With `CCCCC1(C2CCCC2)Cc2cc(OCCCC(=O)O)c(Cl)c(Cl)c2C1=O` (stereo not drawn) [DCPIB] as the compound, how does the caspase activity reached (HEI-OC1 cells; dosage ~4.4 μM, cisplatin 50 μM) read?
Its caspase activity reached is 0%.

What about the IC50 (HEI-OC1 cells; cisplatin 50 μM) of the same compound?
Its IC50 is 3.1 µM.

And the “protection against cisplatin ototoxicity” value [1, 3]?
The value was “showed protection against CIHL”.

Which results are given for `O=C(Nc1ccc([N+](=O)[O-])cc1Cl)c1cc(Cl)ccc1O` [Niclosamide]?
caspase-3/7 activity versus control cells (in words) (HEI-OC1 cells; dose 4.4 μM, cisplatin 50 μM, n=3 wells): reduce caspase activity to comparable levels as control cells; cisplatin damage in zebrafish HCs at SO3 and O1-2 neuromasts ([1]; pretreated with 0.002 μM, n=5 to 8 per group): significantly reduced Cisplatin damage

With `O=S([O-])([O-])=S.[Na+].[Na+]` [Sodium thiosulfate (STS), Sodium thiosulfate] as the compound, how does the “protecting cisplatin-induced hearing loss (CIHL)” value ([2]; patients with other cancers) read?
Its value is “ineffective”.

And the protecting hearing ([2]; pediatric patients with localized hepatoblastoma who received cisplatin chemotherapy)?
The protecting hearing was “effective”.

Which activity at 13.3 µM (HEI-OC1 cells) does the source give for `CC[C@@]1(O)C(=O)OCc2c1cc1n(c2=O)Cc2cc3ccccc3nc2-1` [camptothecin] here?
The activity at 13.3 µM was about 80%.

What about the “protection against cisplatin ototoxicity” value [1, 3] of the same compound?
Its value is “showed protection against CIHL”.

For `C[C@H](CS)C(=O)N1CCC[C@H]1C(=O)O` [captopril], which activity at 0.165 µM (HEI-OC1 cells) is on record?
The activity at 0.165 µM was about 85%.

What about the “protection against cisplatin ototoxicity” value [1, 3] of the same compound?
Its value is “showed protection against CIHL”.

With `CN1C(=O)[C@@]23C[C@]4([C@]56C[C@@]78SS[C@@](CO)(C(=O)N7[C@H]5Nc5ccccc56)N(C)C8=O)c5ccccc5N[C@@H]4N2C(=O)[C@]1(CO)SS3` [chaetocin] as the compound, how does the activity at 13.3 µM (HEI-OC1 cells) read?
The activity at 13.3 µM was 0%.

What does the source list for `OCC(S)CS` (stereo not drawn) [dimercaptopropanol]?
caspase activity reached (HEI-OC1 cells; dosage ~40 μM, cisplatin 50 μM): 0%; IC50 (HEI-OC1 cells; cisplatin 50 μM): ~15 µM; protection against cisplatin ototoxicity (CIHL) in zebrafish [1, 3]: showed protection against CIHL

What does the source list for `CO[C@H]1C[C@@H]2CC[C@@H](C)[C@@](O)(O2)C(=O)C(=O)N2CCCC[C@H]2C(=O)O[C@H]([C@H](C)C[C@@H]2CC[C@@H](OCCO)[C@H](OC)C2)CC(=O)[C@H](C)/C=C(\C)[C@@H](O)[C@@H](OC)C(=O)[C@H](C)C[C@H](C)/C=C/C=C/C=C/1C` [everolimus]?
activity at 13.3 µM (HEI-OC1 cells): 0%; protection against cisplatin ototoxicity (CIHL) in zebrafish [1, 3]: showed protection against CIHL

Which “protection of hair cells from excitotoxic damage” value (zebrafish hair cells) does the source give for `CC(Nc1nc(N2CCCC2)nc2ccccc12)c1ccccc1` (stereo not drawn) [importazole] here?
Its value is “protect hair cells from excitotoxic damage”.

And the caspase activity reached (HEI-OC1 cells; dosage ~40 μM, cisplatin 50 μM)?
The caspase activity reached was 0%.

And the IC50 (HEI-OC1 cells; cisplatin 50 μM)?
The IC50 was 6.52 µM.

And the “protection against cisplatin ototoxicity” value [1, 3]?
Its value is “showed protection against CIHL”.

Which results are given for `CCc1c2c(nc3ccc(OC(=O)N4CCC(N5CCCCC5)CC4)cc13)-c1cc3c(c(=O)n1C2)COC(=O)[C@]3(O)CC` [irinotecan]?
activity at 13.3 µM (HEI-OC1 cells): ~60%; protection against cisplatin ototoxicity (CIHL) in zebrafish [1, 3]: showed protection against CIHL

With `CCCC[C@@H](C)/C=C(C)/C=C(\C)C(=O)NC1=C[C@@](O)(/C=C/C=C/C=C/C(=O)NC2=C(O)CCC2=O)[C@@H]2O[C@@H]2C1=O` [manumycin A] as the compound, how does the caspase activity reached (HEI-OC1 cells; dosage ~1.48 μM, cisplatin 50 μM) read?
The caspase activity reached was about 35%.

What about the IC50 (HEI-OC1 cells; cisplatin 50 μM) of the same compound?
Its IC50 is 11.7 µM.

What about the “protection against cisplatin ototoxicity” value [1, 3] of the same compound?
The value was “showed protection against CIHL”.

For `CC(=O)c1c(C)c2cnc(Nc3ccc(N4CCNCC4)cn3)nc2n(C2CCCC2)c1=O` [palbociclib], which activity at 40 µM (HEI-OC1 cells) is on record?
The activity at 40 µM was about 80%.

For `C1CCC(C(CC2CCCCN2)C2CCCCC2)CC1` (stereo not drawn) [perhexiline maleate], which activity at 40 µM (HEI-OC1 cells) is on record?
Its activity at 40 µM is 0%.

What about the “protection against cisplatin ototoxicity” value [1, 3] of the same compound?
The value was “showed protection against CIHL”.

With `CCCc1cc(C(N)=S)ccn1` [prothionamide] as the compound, how does the activity at 40 µM (HEI-OC1 cells) read?
Its activity at 40 µM is about 50%.

And the “protection against cisplatin ototoxicity” value [1, 3]?
Its value is “showed protection against CIHL”.

With `C[C@@H]1C[C@H]2O[C@@H]2/C=C\C=C\C(=O)Cc2c(Cl)c(O)cc(O)c2C(=O)O1` [radicicol] as the compound, how does the activity at 13.3 µM (HEI-OC1 cells) read?
Its activity at 13.3 µM is 0%.

And the “protection against cisplatin ototoxicity” value [1, 3]?
Its value is “showed protection against CIHL”.

With `Cc1nc2ccc(CN(C)c3ccc(C(=O)N[C@@H](CCC(=O)O)C(=O)O)s3)cc2c(=O)[nH]1` [raltitrexed] as the compound, how does the activity at 40 µM (HEI-OC1 cells) read?
Its activity at 40 µM is about 20%.

What about the “protection against cisplatin ototoxicity” value [1, 3] of the same compound?
The value was “showed protection against CIHL”.

With `CC(=O)c1c(O)c(C)c(O)c(Cc2c(O)c3c(c(C(=O)/C=C/c4ccccc4)c2O)OC(C)(C)C=C3)c1O` [rottlerin] as the compound, how does the activity at 13.3 µM (HEI-OC1 cells) read?
Its activity at 13.3 µM is 0%.

And the “protection against cisplatin ototoxicity” value [1, 3]?
Its value is “showed protection against CIHL”.

Which results are given for `CC(C(=O)Nc1cccc(/N=C/c2c(O)ccc3ccccc23)c1)c1ccccc1` (stereo not drawn) [salermide]?
activity at 40 µM (HEI-OC1 cells): 0%; protection against cisplatin ototoxicity (CIHL) in zebrafish [1, 3]: showed protection against CIHL

Which activity at 40 µM (HEI-OC1 cells) does the source give for `O=C(O)[C@@H](S)[C@@H](S)C(=O)O` [succimer] here?
The activity at 40 µM was about 80%.

What about the “protection against cisplatin ototoxicity” value [1, 3] of the same compound?
The value was “showed protection against CIHL”.

Which results are given for `CSc1ccc2c(c1)N(CCC1CCCCN1C)c1ccccc1S2` (stereo not drawn) [thioridazine]?
activity at 40 µM (HEI-OC1 cells): 0%; protection against cisplatin ototoxicity (CIHL) in zebrafish ([1]; zebrafish, in vivo): showed protection against CIHL

Which “protection against cisplatin ototoxicity” value [1, 3] does the source give for `CC(S)C(=O)NCC(=O)O` (stereo not drawn) [tiopronin] here?
The value was “showed protection against CIHL”.

Which activity at 40 µM (HEI-OC1 cells) does the source give for `COC[C@H]1OC(=O)c2coc3c2[C@@]1(C)C1=C(C3=O)[C@@H]2CCC(=O)[C@@]2(C)C[C@H]1OC(C)=O` [wortmannin] here?
Its activity at 40 µM is about 50%.
